Assay results from US10072005B2, “4-azaindole derivatives” (EISAI R&D MANAGEMENT CO., LTD., priority 2013, dated 2018).

Target: mAChR M1 (Homo sapiens, UniProt P11229)
Test: In vitro cellular calcium flux assay, positive allosteric modulation of mAChR M1
Assay type: cell-based
Conditions: not given
Experimental: Baby hamster kidney cells stably expressing human or rat mAChR M1 to M5 were utilised for primary and selectivity profiling activities. mAChR M2 and M4 cell lines also stably expressed the chimeric Gαqi5 G-protein.
Human mAChR M1, M3, M5 and rat M1 cells were grown in low glucose Dulbecco's Modified Eagle's Medium (DMEM) medium plus heat inactivated 10% fetal bovine serum (HI FBS) and 500 μg/ml hygromycin B^1. Human mAChR M2 and M4 cells were maintained as above with^2 the addition of 500 μg/ml G418 to the media. Cells were maintained in culture at 37° C./5% CO2 and passaged twice weekly by treatment with 0.05% Trypsin/EDTA detachment solution, centrifugation (200 g, 5 min) and re-suspension in fresh media. Following cell expansion, cells were cryopreserved at −80° C. by treatment with 0.05% Trypsin/EDTA detachment solution, centrifugation (200 g, 5 min) and re-suspension of the pellet in freezing media (90% HI FBS/10% DMSO^3) at 15E6 cells/ml^4.
Prior to assaying, cells were prepared by thawing at 37° C. in a water bath, centrifugation (200 g, 5 min) and re-suspension of the pellet in fresh media. 15000 cells per well were seeded in black, clear bottomed 384-well Greiner Bio-One plates in plating medium (DMEM/10% HI FBS) and incubated overnight at 37 C/5% CO2.
On the day of the assay, media was removed from each well and replaced with 50 μl^5 assay buffer (HBSS with 20 mM HEPES and 2.5 mM Probenecid) containing the calcium indicator, Calcium 4 (Molecular Devices). Cells were then incubated at 37° C./5% CO2 for 30 min and at room temperature.
Compound preparation was carried out by generation of 11-point, 1 in 3 serial dilution concentration response curves in 100% DMSO. Compound was then diluted 1 in 65^6 with assay buffer (HBSS with 20 mM HEPES and 2.5 mM Probenecid) prior to the addition of 10 ul^7 to the cells using a Tetra fluorometric imaging plate reader (Molecular Devices)^8. Compound driven increases in intracellular calcium flux was measured as an increase in fluorescence (494Ex, 516Em)^9.
Positive allosteric modulator pEC50 values and antagonist pIC50 values for each compound were then determined. […] The points of modification and the alternate reagents, concentrations or equipment employed in these examples were: ^1200 μg/ml hygromycin B; ^2G418 not added; ^3CELLBANKER 1; ^410E6; ^5 40 μl; ^6 1 in 99; ^7 20 μl; ^8FDSS6000 (Hamamatsu Photonics); ^9(480Ex, 540Em); ^10Spotfire (TIBCO).

mAChR M1, sequence (P11229 whole entry, looked up): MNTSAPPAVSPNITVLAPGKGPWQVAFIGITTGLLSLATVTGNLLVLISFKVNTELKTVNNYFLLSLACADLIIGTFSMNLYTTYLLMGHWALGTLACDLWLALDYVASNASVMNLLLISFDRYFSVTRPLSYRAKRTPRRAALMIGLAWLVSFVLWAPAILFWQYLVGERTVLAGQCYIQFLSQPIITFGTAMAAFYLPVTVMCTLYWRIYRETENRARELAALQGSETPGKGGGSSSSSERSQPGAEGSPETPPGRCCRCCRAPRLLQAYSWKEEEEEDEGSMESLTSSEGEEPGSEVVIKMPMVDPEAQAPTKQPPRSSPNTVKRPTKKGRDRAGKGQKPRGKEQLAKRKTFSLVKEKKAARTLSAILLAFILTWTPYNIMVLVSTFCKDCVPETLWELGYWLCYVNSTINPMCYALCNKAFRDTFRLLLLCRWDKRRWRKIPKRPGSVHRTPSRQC

Row | Structure (SMILES) | EC50 [nM]
1 | N#Cc1ccc(Cn2cc(C(=O)N[C@H]3CCCC[C@@H]3O)c3nccc(Cl)c32)cn1 [Example 70, 7-Chloro-1-((6-cyanopyridin-3-yl)methyl)-N-((1S,2S)-2-hydroxycyclohexyl)-1H-pyrrolo[3,2-b]pyridine-3-carboxamide] | 100

Same assay, conditions: BHK cells expressing mAChR M1; EC20 carbachol; Examples 76-80 and 82-89 slightly modified procedure

Row | Structure (SMILES) | pEC50 for positive allosteric modulation
2 | Cn1ccnc1-c1ccc(Cn2cc(C(=O)N[C@H]3CCCC[C@@H]3O)c3ncccc32)cc1 [Example 42, N-((1S,2S)-2-Hydroxycyclohexyl)-1-(4-(1-methyl-1H-imidazol-2-yl)benzyl)-1H-pyrrolo[3,2-b]pyridine-3-carboxamide] | 7.0
3 | Cc1cccc(-c2ccc(Cn3cc(C(=O)N[C@H]4CCCC[C@@H]4O)c4ncccc43)c(F)c2)n1 [Example 44, 1-(2-Fluoro-4-(6-methylpyridin-2-yl)benzyl)-N-((1S,2S)-2-hydroxycyclohexyl)-1H-pyrrolo[3,2-b]pyridine-3-carboxamide] | 6.9
4 | Cc1cc(-c2ccc(Cn3cc(C(=O)N[C@H]4CCCC[C@@H]4O)c4ncccc43)c(F)c2)ccn1 [Example 45, 1-(2-Fluoro-4-(2-methylpyridin-4-yl)benzyl)-N-((1S,2S)-2-hydroxycyclohexyl)-1H-pyrrolo[3,2-b]pyridine-3-carboxamide] | 7.5
5 | O=C(NC1CCCCC1)c1cn(Cc2ccc(-n3cccn3)cc2)c2cccnc12 [Example 50, 1-(4-(1H-Pyrazol-1-yl)benzyl)-N-cyclohexyl-1H-pyrrolo[3,2-b]pyridine-3-carboxamide] | 6.4
6 | O=C(NC1CCC(F)(F)CC1)c1cn(Cc2ccc(-n3cccn3)cc2)c2cccnc12 [Example 51, 1-(4-(1H-Pyrazol-1-yl)benzyl)-N-(4,4-difluorocyclohexyl)-1H-pyrrolo[3,2-b]pyridine-3-carboxamide] | 6.3
7 | O=C(N[C@H]1CCCNC1)c1cn(Cc2ccc(-n3cccn3)cc2)c2cccnc12 [Example 52, (S)-1-(4-(1H-Pyrazol-1-yl)benzyl)-N-(piperidin-3-yl)-1H-pyrrolo[3,2-b]pyridine-3-carboxamide] | 6.7
8 | O=C(N[C@@H]1CCCNC1)c1cn(Cc2ccc(-n3cccn3)cc2)c2cccnc12 [Example 53, (R)-1-(4-(1H-Pyrazol-1-yl)benzyl)-N-(piperidin-3-yl)-1H-pyrrolo[3,2-b]pyridine-3-carboxamide] | 6.2
9 | CN1CCC[C@H](NC(=O)c2cn(Cc3ccc(-n4cccn4)cc3)c3cccnc23)C1 [Example 54, (S)-1-(4-(1H-Pyrazol-1-yl)benzyl)-N-(1-methylpiperidin-3-yl)-1H-pyrrolo[3,2-b]pyridine-3-carboxamide] | 7.5
10 | CN1CCC[C@@H](NC(=O)c2cn(Cc3ccc(-n4cccn4)cc3)c3cccnc23)C1 [Example 55, (R)-1-(4-(1H-Pyrazol-1-yl)benzyl)-N-(1-methylpiperidin-3-yl)-1H-pyrrolo[3,2-b]pyridine-3-carboxamide] | 6.7
11 | O=C(N[C@H]1CCCC[C@@H]1O)c1cn(Cc2ccc(Br)cc2)c2cccnc12 [Example 56, 1-(4-Bromobenzyl)-N-((1S,2S)-2-hydroxycyclohexyl)-1H-pyrrolo[3,2-b]pyridine-3-carboxamide] | 6.5
12 | Cn1cc(-c2ccc(Cn3cc(C(=O)N[C@H]4CCCC[C@@H]4O)c4ncccc43)cc2)cn1 [Example 57, N-((1S,2S)-2-Hydroxycyclohexyl)-1-(4-(1-methyl-1H-pyrazol-4-yl)benzyl)-1H-pyrrolo[3,2-b]pyridine-3-carboxamide] | 7.6
13 | COc1ccc(Cn2cc(C(=O)N[C@H]3CCCC[C@@H]3O)c3nccc(Cl)c32)cc1 [Example 58, 7-Chloro-N-((1S,2S)-2-hydroxycyclohexyl)-1-(4-methoxybenzyl)-1H-pyrrolo[3,2-b]pyridine-3-carboxamide] | 7.7
14 | Cc1ccnc2c(C(=O)N[C@H]3CCCC[C@@H]3O)cn(Cc3ccc(Cl)nc3)c12 [Example 59, 1-((6-Chloropyridin-3-yl)methyl)-N-((1S,2S)-2-hydroxycyclohexyl)-7-methyl-1H-pyrrolo[3,2-b]pyridine-3-carboxamide] | 7.4
15 | Cc1ccnc2c(C(=O)N[C@H]3CCCC[C@@H]3O)cn(Cc3ccc(Cl)cc3)c12 [Example 60, 1-(4-Chlorobenzyl)-N-((1S,2S)-2-hydroxycyclohexyl)-7-methyl-1H-pyrrolo[3,2-b]pyridine-3-carboxamide] | 7.8
16 | Cc1ccc(Cn2cc(C(=O)N[C@H]3CCCC[C@@H]3O)c3nccc(Cl)c32)nc1 [Example 61, 7-Chloro-N-((1S,2S)-2-hydroxycyclohexyl)-1-((5-methylpyridin-2-yl)methyl)-1H-pyrrolo[3,2-b]pyridine-3-carboxamide] | 7.0
17 | Cc1ccc(Cn2cc(C(=O)N[C@H]3CCCC[C@@H]3O)c3nccc(Cl)c32)cn1 [Example 62, 7-Chloro-N-((1S,2S)-2-hydroxycyclohexyl)-1-((6-methylpyridin-3-yl)methyl)-1H-pyrrolo[3,2-b]pyridine-3-carboxamide] | 7.4
18 | Cc1ccc(Cn2cc(C(=O)N[C@H]3CCCC[C@@H]3O)c3nccc(C)c32)cc1 [Example 63, N-((1S,2S)-2-Hydroxycyclohexyl)-7-methyl-1-(4-methylbenzyl)-1H-pyrrolo[3,2-b]pyridine-3-carboxamide] | 7.6
19 | Cc1ccc(Cn2cc(C(=O)N[C@H]3CCCC[C@@H]3O)c3nccc(C)c32)nc1 [Example 64, N-((1S,2S)-2-Hydroxycyclohexyl)-7-methyl-1-((5-methylpyridin-2-yl)methyl)-1H-pyrrolo[3,2-b]pyridine-3-carboxamide] | 7.2
20 | Cc1ccnc2c(C(=O)N[C@H]3CCCC[C@@H]3O)cn(Cc3cccc(F)c3)c12 [Example 65, 1-(3-Fluorobenzyl)-N-((1S,2S)-2-hydroxycyclohexyl)-7-methyl-1H-pyrrolo[3,2-b]pyridine-3-carboxamide] | 7.7
21 | COc1ccc(Cn2cc(C(=O)N[C@H]3CCCC[C@@H]3O)c3nccc(C)c32)cc1C [Example 66, N-((1S,2S)-2-Hydroxycyclohexyl)-1-(4-methoxy-3-methylbenzyl)-7-methyl-1H-pyrrolo[3,2-b]pyridine-3-carboxamide] | 7.9
22 | COc1ccc(Cn2cc(C(=O)N[C@H]3CCCC[C@@H]3O)c3nccc(C)c32)cn1 [Example 67, N-((1S,2S)-2-Hydroxycyclohexyl)-1-((6-methoxypyridin-3-yl)methyl)-7-methyl-1H-pyrrolo[3,2-b]pyridine-3-carboxamide] | 7.5
23 | COc1ccc(Cn2cc(C(=O)N[C@H]3CCCC[C@@H]3O)c3nccc(Cl)c32)cn1 [Example 68, 7-Chloro-N-((1S,2S)-2-hydroxycyclohexyl)-1-((6-methoxypyridin-3-yl)methyl)-1H-pyrrolo[3,2-b]pyridine-3-carboxamide] | 7.7
24 | COc1cc(Cn2cc(C(=O)N[C@H]3CCCC[C@@H]3O)c3nccc(Cl)c32)ccn1 [Example 69, 7-Chloro-N-((1S,2S)-2-hydroxycyclohexyl)-1-((2-methoxypyridin-4-yl)methyl)-1H-pyrrolo[3,2-b]pyridine-3-carboxamide] | 8.0
25 | COc1cc(Cn2cc(C(=O)N[C@H]3CCCC[C@@H]3O)c3nccc(C)c32)ccn1 [Example 71, N-((1S,2S)-2-Hydroxycyclohexyl)-1-((2-methoxypyridin-4-yl)methyl)-7-methyl-1H-pyrrolo[3,2-b]pyridine-3-carboxamide] | 7.9
26 | Cn1cc(Cn2cc(C(=O)N[C@H]3CCCC[C@@H]3O)c3nccc(Cl)c32)cn1 [Example 72, 7-Chloro-N-((1S,2S)-2-hydroxycyclohexyl)-1-((1-methyl-1H-pyrazol-4-yl)methyl)-1H-pyrrolo[3,2-b]pyridine-3-carboxamide] | 7.8

Same assay, conditions: BHK cells expressing mAChR M1; EC20 carbachol; Examples 76-80 and 82-89 slightly modified procedure; read-out: pEC50 for positive allosteric modulation (converted)

Row | Structure (SMILES) | EC50 [nM]
27 | N#Cc1ccc2c(n1)c(C(=O)N[C@H]1CCCC[C@@H]1O)cn2Cc1ccc(-n2cccn2)cc1 [Example 41, 1-(4-(1H-Pyrazol-1-yl)benzyl)-5-cyano-N-((1S,2S)-2-hydroxycyclohexyl)-1H-pyrrolo[3,2-b]pyridine-3-carboxamide] | 316
